Square brackets hold non-standard residues; d marks the D form. Peptide text beside a SMILES is read from it. * marks the point of attachment. NHiPr = CC(C)N*; OiPr = CC(C)O*
test: not given; details: prior art values (U.S. 3,492,131; Mazur et al.; Sukehiro et al.); cited from earlier work

Which “sweetness relative to sucrose” value does the source give for `CC(C)OC(=O)[C@@H](C)NC(=O)[C@@H](N)CC(=O)O` [L-aspartyl-D-alanine isopropyl ester] (H-Asp-[dA]-OiPr) here?
Its value is “up to 125 times sucrose”.

test: Sweetness potency: gustatory sweetness compared with sucrose standard by expert taste panel; type: in vivo; details: aqueous solutions compared with 7-9% sucrose
Description: The sweetness potency of the instant compounds was determined by comparison of their gustatory sweetnesses with sucrose. Aqueous solutions of the compound of formula (I) diluted to a suitable range of concentrations were compared with a sucrose standard by an expert taste panel. Comparisons were generally made with aqueous sucrose solutions of 7-9%, i.e., 7-9 g. per 100 ml. Higher sucrose concentrations have a distinctive mouthfeel which may influence results and lower sucrose concentration are not indicative of normal use situations. […] All of the sweetness potency values stated herein for the compounds of the invention were determined by this method.

With `CC1CSCC(C)C1NC(=O)[C@@H](C)NC(=O)[C@@H](N)CC(=O)O` (stereo partly drawn) [Example 12, L-Aspartyl-D-alanine-N-(3,5-dimethyltetrahydrothiopyran-4-yl)amide] as the molecule, how does the Sweetness potency read?
Its Sweetness potency is 200 x sucrose.

For `CC[C@@H](NC(=O)[C@@H](N)CC(=O)O)C(=O)NC(C1CC1)C1CC1` [Example 20, L-Aspartyl-D-2-aminobutyric acid N-(dicyclopropylcarbinyl)amide], which Sweetness potency is on record?
The Sweetness potency was 500 x sucrose.

With `C[C@@H](NC(=O)[C@@H](N)CC(=O)O)C(=O)NC1C(C)(C)CCC1(C)C` [Example 7, L-Aspartyl-D-alanine N-(2,2,5,5-tetramethylcyclopent-l-yl)amide] as the molecule, how does the Sweetness potency read?
Its Sweetness potency is 800 x sucrose.

Which Sweetness potency does the source give for `CC(C)C(NC(=O)[C@@H](C)NC(=O)[C@@H](N)CC(=O)O)C(C)(C)O` (stereo partly drawn) [Example 26, L-Aspartyl-D-alanine N-(2-hydroxy-2,4-dimethyl-3-pentyl)amide] here?
The Sweetness potency was 125 x sucrose.

For `C[C@@H](NC(=O)[C@@H](N)CC(=O)O)C(=O)NC1C(C)(C)S(=O)(=O)C1(C)C` [Example 17, L-Aspartyl-D-alanine N-(2,2,4,4-tetramethyl-1,1-dioxothietan-3-yl)amide], which Sweetness potency is on record?
The Sweetness potency was 1000 x sucrose.

With `CC(C)NC(=O)[C@H](NC(=O)[C@@H](N)CC(=O)O)C(C)C` [Example 24, L-Aspartyl-D-valine N-isopropylamide] (H-Asp-[dV]-NHiPr) as the molecule, how does the Sweetness potency read?
The Sweetness potency was 1-2 x sucrose.

For “L-Aspartyl-D-alanine N-(2,2,4,4-tetramethyltetrahydrothiophene-3-yl)amide [Example 14]”, which Sweetness potency is on record?
The Sweetness potency was 500 x sucrose.

With `CSC(C)(C)C(NC(=O)[C@@H](C)NC(=O)[C@@H](N)CC(=O)O)C(C)C` (stereo partly drawn) [Example 18, L-Aspartyl-D-alanine N-(2-methylthio-2,4-dimethylpentan-3-yl)amide] as the molecule, how does the Sweetness potency read?
Its Sweetness potency is 150 x sucrose.

For `C[C@@H](NC(=O)[C@@H](N)CC(=O)O)C(=O)NC(C1CC1)C(C)(C)C` (mixture of isomers) [Example 6, L-Aspartyl-D-alanine N-(dl-t-butylcyclopropylcarbinyl)amide], which Sweetness potency is on record?
The Sweetness potency was 1200 x sucrose.

With `CC1CCCCC1NC(=O)[C@@H](C)NC(=O)[C@@H](N)CC(=O)O` (stereo partly drawn) [Example 4, L-Aspartyl-D-alanine N-(2-methycyclohexyl)amide] as the molecule, how does the Sweetness potency read?
Its Sweetness potency is 250 x sucrose.

With `C[C@@H](NC(=O)[C@@H](N)CC(=O)O)C(=O)NC1C(C)(C)CSC1(C)C` (mixture of isomers) [L-Aspartyl-D-alanine N-(2,2,4,4-tetramethyltetrahydrothiophene-3-yl)amide] as the molecule, how does the Sweetness potency read?
Its Sweetness potency is 800 x sucrose.

For `CC[C@@H](NC(=O)[C@@H](N)CC(=O)O)C(=O)NC(C(C)C)C(C)C` [Example 22, L-Aspartyl-D-2-aminobutyric acid N-(2,4-dimethyl-3-pentyl)amide], which Sweetness potency is on record?
The Sweetness potency was 100 x sucrose.

For `C[C@@H](NC(=O)[C@@H](N)CC(=O)O)C(=O)NC1C(C)(C)SC1(C)C` [Example 16, L-Aspartyl-D-alanine N-(2,2,4,4-tetramethylthietan-3-yl)amide], which Sweetness potency is on record?
The Sweetness potency was 2000 x sucrose.

Which Sweetness potency does the source give for `C[C@@H](NC(=O)[C@@H](N)CC(=O)O)C(=O)NC(C1CC1)C1CC1` [[I, R^a =CH3, R=CH(Δ)2], L-Aspartyl-D-alanine N-(dicyclopropylcarbinyl)amide] here?
The Sweetness potency was 1200 x sucrose.

With `CC(C)[C@@H](NC(=O)[C@@H](N)CC(=O)O)C(=O)NC(C1CC1)C1CC1` [Example 23, L-Aspartyl-D-valine N-(dicyclopropylcarbinyl)amide] as the molecule, how does the Sweetness potency read?
The Sweetness potency was 110 x sucrose.

Which Sweetness potency does the source give for `C[C@@H](NC(=O)[C@@H](N)CC(=O)O)C(=O)NC(C(C)(C)C)C(C)(C)C` [Example 25, L-Aspartyl-D-alanine N-(2,2,4,4-tetramethyl-3-pentyl)amide] here?
The Sweetness potency was 450 x sucrose.

For `CC1CCCC(C)C1NC(=O)[C@@H](C)NC(=O)[C@@H](N)CC(=O)O` (relative stereo) [Example 3], which Sweetness potency is on record?
Its Sweetness potency is 600 x sucrose.

With `C[C@@H](NC(=O)[C@@H](N)CC(=O)O)C(=O)NC1C(=O)OCC1(C)C` (mixture of isomers) [Example 27, L-Aspartyl-D-alanine N-(DL-2-amino-3,3-dimethyl-4-hydroxybutanoic acid lactone)amide] as the molecule, how does the Sweetness potency read?
Its Sweetness potency is 100 x sucrose.

Which Sweetness potency does the source give for `CC[C@@H](NC(=O)[C@@H](N)CC(=O)O)C(=O)NC1C(C)(C)S(=O)(=O)C1(C)C` [Example 21, L-Aspartyl-D-2-aminobutyric acid N-(2,2,4,4-tetramethyl-1,1-dioxothietan-3-yl)amide] here?
Its Sweetness potency is 200 x sucrose.

test: not given; details: factor used to calculate the theoretical sweetness of the blends; cited from earlier work

With `O=C1NS(=O)(=O)c2ccccc21.[Na]` [sodium saccharin] as the molecule, how does the Sweetness potency factor read?
The Sweetness potency factor was 300 x sucrose.
